Source: US7820645B2, “Crystalline forms” (AstraZeneca AB, priority 2006, dated 2010)
Converted amounts (≈) assume the structure as drawn. Like-named read-outs stand apart in the source and are kept apart here.

Tests used:
[1] = Solubility in organic solvents (gravimetric, saturated solution from one-day slurry); type: physicochemical; conditions: for solubility at 1 day: organic solvent or mixture, thermodynamic from solid, 22° C.
Method: An excess of Compound A from Example 3 above was slurried in ethyl acetate for one day. A proportion of the saturated solution was then withdrawn through a 0.5 micrometer filter to a pre-weighted E-flask. The E-flask was weighed and then opened & evaporated in air, and then dried in vacuum at 40° C. until the weight was constant. The weight of the solution, the weight of dry substance, the weight of solvent and the volume of solvent were determined (using the density of ethyl acetate at 22° C.=0.90 g/ml).
(§1) An excess of Compound B from Example 2 above was slurried in isopropanol for one day in a closed vessel. A proportion of the saturated solution was then withdrawn through a 0.5 micrometer filter to a pre-weighted E-flask. The E-flask was weighed and then opened & evaporated in air, and then dried in vacuum at 70° C. until the weight was constant. The weight of the solution, the weight of dry substance, the weight of solvent and the volume of solvent were determined (using the density of isopropanol at 22° C.=0.79 g/ml).
as §1, with “Compound A” for “Compound B”, “Example 6” for “Example 2”
(§2) An excess of Compound A from Example 6 above was slurried in ethanol for one day in a closed vessel. A proportion of the saturated solution was then withdrawn through a 0.5 micrometer filter to a pre-weighed E-flask. The E-flask was weighed and then opened and evaporated in air, and then dried in vacuum at 40-50° C. until the weight was constant. The weight of the solution, the weight of dry substance, the weight of solvent and the volume of solvent were determined (using the density of ethanol at 22° C.=0.79 g/ml).
as §2, with “in methanol” for “in ethanol”, “a pre-weighted” for “a pre-weighed”, “opened &” for “opened and”, “of methanol” for “of ethanol”
as §1, with “Compound A” for “Compound B”, “Example 6” for “Example 2”, “in acetone” for “in isopropanol”, “of acetone” for “of isopropanol”, “22° C.=0.82” for “22° C.=0.79”

thrombin [2] = molecular target: T1, thrombin (Homo sapiens, UniProt P00734); conditions: Test A of WO 02/44145; disclosed in Example 46 of WO 02/44145; cited from earlier work
thrombin [3] = molecular target: T1, thrombin; conditions: Test D of WO 02/44145; disclosed in Example 47 of WO 02/44145; cited from earlier work
[4] = isopropanol, Compound B from Example 2 or Compound A anhydrate from Example 6
[5] = isopropanol, Compound B from Example 2 or Compound A anhydrate from Example 6, read-out: solubility (mg per ml isopropanol)

Row | solubility as weight % [1, 4] [% w/w] | solubility at 1 day [1, 5] [mg/mL] | solubility as weight % ([1]; acetone, Compound A from Example 6) [% w/w] | solubility as weight % ([1]; ethanol, Compound A from Example 6) [% w/w] | solubility as weight % ([1]; ethyl acetate, Compound A from Example 3) [% w/w] | solubility as weight % ([1]; methanol, Compound A from Example 6) [% w/w] | solubility at 1 day ([1]; acetone, Compound A from Example 6, read-out: solubility (mg per ml acetone)) [mg/mL] | solubility at 1 day ([1]; ethanol, Compound A from Example 6, read-out: solubility (mg per ml ethanol)) [mg/mL] | solubility at 1 day ([1]; ethyl acetate, Compound A from Example 3, read-out: solubility (mg per ml ethyl acetate)) [mg/mL] | solubility at 1 day ([1]; methanol, Compound A from Example 6, read-out: solubility (mg per ml methanol)) [mg/mL] | SMILES | IC50 (thrombin [2]) [µM] | IC50 (thrombin [3]) [µM]
1 | 0.4 | 3 (≈ 6.21 mM) |  |  |  |  |  |  |  |  | N/C(=N\O)c1ccc(CNC(=O)[C@@H]2CCN2C(=O)[C@H](O)c2cc(Cl)cc(OC(F)F)c2)cc1 [Compound B, Ph(3-Cl)(5-OCHF2)—(R)CH(OH)C(O)-Aze-Pab(OH)] |  | 
2 |  |  |  |  |  |  |  |  |  |  | N=C(N)c1ccc(CNC(=O)[C@@H]2CCN2C(=O)[C@H](O)c2cc(Cl)cc(OC(F)F)c2)cc1 [Compound C] | < 0.02 | < 1
3 | 2 | 15 (≈ 30.2 mM) | 33 | 10 | 4 | 45 | 398 (≈ 801 mM) | 87 (≈ 175 mM) | 36 (≈ 72.4 mM) | 655 (≈ 1320 mM) | CO/N=C(\N)c1ccc(CNC(=O)[C@@H]2CCN2C(=O)[C@H](O)c2cc(Cl)cc(OC(F)F)c2)cc1 [Compound A, Ph(3-Cl)(5-OCHF2)—(R)CH(OH)C(O)-Aze-Pab(OMe)] |  | 
